Where a name gives a salt, the structure may show the parent alone.
Assay: Particle-size distribution (PSD) analysis, Malvern Mastersizer 3000
Format: physicochemical
Details: certificate of analysis, FIG. 1; after spiral jet-mill micronization
Excerpt: PARTICLE-SIZE DISTRIBUTION (PSD) ANALYTICAL METHOD: Equipment Malvern Mastersizer 3000 equipped with Hydro MV dispersion unit Dispersant Preparation—1. Fill the dispersion unit with hexane—2. Check that the channel 1 of background signal is less than 80 and no anomalous spikes are present—3. Check the background signal: it has to be stable and complying with the following limits: Channel 1<100, Channel 20<60. Sample Preparation—Randomize the sample by manually tumbling and rolling for 30 seconds, weigh approximately 15 mg of powder in a 100 mL Erlenmeyer flask, add 2 mL of Span 85 (Sorbitane trioleate; 5% w/w water solution). A homogeneous mixture, using the tip of a small stainless steel spatula, has to be obtained. Using a Pasteur pipette add 1 mL of water and homogenize the suspension. Repeat this operation until a volume of 8-10 mL is reached. Sonicate the sample for 5 seconds in an ultrasonic bath (25 kHz). Procedure—1. Once a stable background signal is obtained, proceed with the SOP—2. Add the sample until the obscuration target is reached. Avoid droplets to fall directly into the liquid when adding the sample suspension putting the pipette tip under water—3. Initiate the measurement—4. The particle size distribution values (D10, D50 and D90) are taken directly from the Malvern screen. All three values determined for a sample are average and rounded to obtain the final values.

CCCN1C[C@H](CSC)C[C@@H]2c3cccc4[nH]cc(c34)C[C@H]21 [micronized pergolide mesylate, (8β)-8-[(methylthio)methyl]-6-propylergoline]
median particle size: 13.3 μm
particle size distribution D90 value: 39.4 μm
